Test results: US20030187067A1, “Use of anethole-dithiolethione for preventing and treating drug-induced tendon toxicity” (priority 2000, published 2003)

Tested on: immortalised tenocytes, known as TENO (Teno Cell Line)
Experiment: type II MIFALC (Microtitration Fluorimetric Assay on Living Cells) test, H2DCF-DA fluorescence, tendon toxicity of fluoroquinolones/statins
Assay type: cell-based
Details: pretreatment with anethole-dithiolethione 20 μM, 72 hours before contact with the xenobiotics; free radicals by H2DCF-DA fluorescence read after 40 minutes
Experimental: The test carried out is a type II MIFALC (Microtitration Fluorimetric Assay on Living Cells) test, that is to say that all of the steps, including detection/disclosure, are carried out on living cells, the test using fluorimetric detection under cold light, in order to achieve the maximum level of detection sensitivity and specificity necessary for the intracellular studies. The tests are carried out on a line of immortalised tenocytes, known as TENO (Teno Cell Line).
The cultures are produced in […] flasks for cell multiplication and in plates having 96 shallow wells for culture.
The tenocytes are placed in suspension with a small amount of trypsin. When the cells are released, the action of the trypsin is blocked by the addition of culture medium containing fetal calf serum. After centrifuging, the residue is taken up by complete medium HAM F-12, then the cells are counted using a Malassez or Thoma hemocytometer. Next, a solution of 27,500 cells/ml is prepared in the complete culture medium and 200 μl are placed in each of the central 60 wells of the microplates having 96 wells. Therefore, there are 5,500 cells per well. The plates are placed in incubation at 37° C. in a humid atmosphere of air/CO2 (95%/5%). The test is carried out after 48 hours when the cells adhere to the support. […]
The fluorescence units are read after 40 minutes.

## COc1ccc(-c2cc(=S)ss2)cc1 [anethole-dithiolethione]
  protection against tendon toxicity (cytotoxic effect) of fluoroquinolones in cellular tenocyte model: protects against this tendon toxicity
